Experimental data as given in patent US8686224B2, “Plant defense signal peptides” (priority 2005, dated 2014).
Non-standard residues stand in square brackets, D forms with d. Residues, ends and D or L forms follow the SMILES beside them. Primed or numbered codes have the meaning given here. No end group written: not given here. *: point of attachment. APDP″ = photoaffinity cross-linker coupled to Cys through a disulfide bond, [N-]=[N+]=Nc1ccc(C(=O)NCCCCNC(=O)CCS*)c(O)c1; Tyr(3-I) = N[C@@H](Cc1ccc(O)c(I)c1)C(=O)O

Legend:
AtPEPR1 = target: T1, AtPEPR1 (Arabidopsis thaliana, UniProt Q9SSL9); test: Medium alkalinization of transgenic tobacco cells expressing AtPEPR1; assay type: cell-based; details: for change in pH: 2.5 nanomolar
T1 construct: Tobacco cells were transformed with a CaMV-35S-AtPEPR1 gene; expressed in transfected cells; host or cells: tobacco suspension-cultured cells (Agrobacterium-mediated, CaMV 35S promoter)
T1 sequence (Q9SSL9 29-1123): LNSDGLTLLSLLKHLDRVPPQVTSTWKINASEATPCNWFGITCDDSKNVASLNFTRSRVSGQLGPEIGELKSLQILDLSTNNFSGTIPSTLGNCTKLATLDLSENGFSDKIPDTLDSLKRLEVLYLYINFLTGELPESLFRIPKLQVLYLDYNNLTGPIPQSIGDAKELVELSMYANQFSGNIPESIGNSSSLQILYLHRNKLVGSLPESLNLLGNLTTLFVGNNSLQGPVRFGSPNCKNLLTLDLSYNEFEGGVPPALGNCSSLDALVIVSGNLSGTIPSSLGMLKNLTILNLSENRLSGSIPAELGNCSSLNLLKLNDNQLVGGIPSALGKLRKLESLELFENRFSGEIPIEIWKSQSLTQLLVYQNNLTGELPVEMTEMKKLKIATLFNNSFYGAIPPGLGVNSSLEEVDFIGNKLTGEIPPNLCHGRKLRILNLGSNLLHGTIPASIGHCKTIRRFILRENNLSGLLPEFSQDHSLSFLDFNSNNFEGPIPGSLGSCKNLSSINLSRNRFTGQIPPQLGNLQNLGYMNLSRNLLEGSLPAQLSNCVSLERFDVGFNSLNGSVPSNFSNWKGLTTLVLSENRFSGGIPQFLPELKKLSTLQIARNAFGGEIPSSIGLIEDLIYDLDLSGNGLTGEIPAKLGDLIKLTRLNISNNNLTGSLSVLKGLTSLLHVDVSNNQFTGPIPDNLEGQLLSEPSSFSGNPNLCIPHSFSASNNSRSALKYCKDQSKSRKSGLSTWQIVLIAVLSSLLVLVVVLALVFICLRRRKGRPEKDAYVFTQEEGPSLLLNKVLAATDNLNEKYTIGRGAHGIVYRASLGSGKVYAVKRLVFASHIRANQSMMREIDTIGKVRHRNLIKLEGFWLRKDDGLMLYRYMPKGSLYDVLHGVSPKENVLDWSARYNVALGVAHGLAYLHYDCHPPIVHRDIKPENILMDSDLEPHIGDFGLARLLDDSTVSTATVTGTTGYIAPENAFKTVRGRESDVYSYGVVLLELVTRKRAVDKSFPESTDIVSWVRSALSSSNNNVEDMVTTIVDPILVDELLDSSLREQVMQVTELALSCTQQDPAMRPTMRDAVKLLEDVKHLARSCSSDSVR
Source text: Tobacco cells were transformed with a CaMV-35S-AtPEPR1 gene to determine whether the foreign receptor protein was targeted to the cell surface, where, in response to AtPep1, it would activate intracellular signaling to effect the alkalinization of the medium of the transgenic tobacco cells. Expression of the AtPEPR1 gene was confirmed by RT-PCR analysis of RNA from three independently transformed tobacco cell lines. […] AtPep2-7 was also supplied to the transgenic tobacco cells expressing AtPEPR1.
To clarify whether AtPEPR2 binds to AtPep1, the AtPEPR2 coding region was fused to the CaMV 35S promoter and introduced into tobacco suspension-cultured cells by Agrobacterium. Tobacco cells expressing AtPEPR1 and GUS genes were also created as positive and negative controls, respectively. […] These transgenic lines were analyzed for alkalinizing activity as previously described (Pearce et al., Proc. Natl. Acad. Sci. USA 98, 12843-12847, 2001).
The response to all AtPep peptides in transgenic tobacco cells expressing either AtPEPR1 or AtPEPR2 was analyzed by the medium alkalinization assay.

[1] = tested on: Arabidopsis suspension cultured cells; test: Alkalinization assay with Arabidopsis suspension cultured cells; assay type: cell-based, Arabidopsis thaliana
Method: For the alkalinization assay, cells suspensions are grown in a volume of 40 ml in a 125 ml flask. Tobacco and Arabidopsis cells are typically grown for 3-5 days before use. Tomato cells are typically grown for 4-7 days before use. Soybean cells are generally grown for 3-7 days before use. Preferably, cells are in mid to log or log phase when they are to be used for the alkalinization assay. A 1 ml pipette tip with the end cut off (to prevent clogging of the tip with the cells) is used to aliquot 1 ml of the cells from the suspension into a well in a 24-well culture cluster plate. The flask is swirled between aliquots to ensure that the cells remain evenly dispersed throughout the cell suspension and an roughly equivalent number of cells is provided to each well. The plate(s) are then shaken at 160 rpm for 1 hour. Small aliquots ([…]) of extracted peptide fractions are then added to the wells. After 20 min, the pH of the cell media is measured and recorded.
Alkalinization Assay. Arabidopsis suspension cells were grown with shaking in the dark in 125 mL flasks, using 40 mL NT media as previously described (Pearce et al. Proc. Natl. Acad. Sci. USA 98:12843-12847, 2001). The cells were transferred weekly (2.5 mL) and used for assays 3-5 days after transfer. One mL aliquots of cells were transferred to wells of 24-well culture plates and allowed to equilibrate for one hour while agitated on a rotary shaker at 160 rpm. Aliquots of 1-10 μL from extracts or fractions eluted from HPLC columns were added to cells and the pH of the media was monitored after 20 min.
Alkalinization assay. Medium alkalinization activity of Arabidopsis suspension cultured cells by AtPep1 analogs was analyzed as previously described for systemin (Pearce et al., Science 253:895-897, 1991), RALF (Pearce et al. Proc. Natl. Acad. Sci. USA 98:12843-12847, 2001), HypSys peptides (Pearce and Ryan. J. Biol. Chem. 278:30044-30050, 2003; Pearce et al., Nature 411:817-820, 2001), and AtPep1 (supra). The alkalinization activity of azido-Cys-AtPep1 were carried out after incubation the analog with cells in darkness for 10 min, when the pH was recorded.
Analogs of AtPep1 from the C-terminus of AtPep1 were synthesized and assayed in the alkalinization assay. One mL aliquots of 4 day old Arabidopsis cells were allowed to equilibrate on an orbital shaker at 180 rpm for one hour. A 10 μL aliquot of each peptide solution was added to the cells. Peptide concentrations of 0.25 nM, 2.5 nM, and 25 nM were tested. After 20 min, the pH of the media was recorded.
The 15-mer from the carboxy-terminus of AtPep1 ([…] (SEQ ID NO: 78)) was substituted with alanine at each position to assess which amino acids were necessary for the alkalinizing activity. […] The set of substituted 15-mer peptides was assayed using four-day-old Arabidopsis cells. […] of each peptide (2.5 pmoles) was added to 1 ml of cells to make a final concentration of 2.5 nM. After 20 min, the pH of the media was recorded. The data is the average of three separate experiments.

[2] = target: T2, AtPep1 receptor (At1g73080, AtPEPR1) (Arabidopsis thaliana, UniProt Q9SSL9); test: Binding assay of 125I1-Tyr-AtPep1 with Arabidopsis suspension cultured cells
T2 sequence (Q9SSL9 29-1123): T1 sequence (Q9SSL9 29-1123)
Method: Binding assays. […] The filtered cells were washed three times with 5 mL of cold MS medium containing 3% sucrose, suspended in 1 mL MS medium containing 3% sucrose in a glass test tube, and analyzed for total radioactivity in a gamma-ray counter (Isodata 2020; Isodata Inc., Palatine, Ill.).

[3] = tested on: P. syringae pv. tomato DC3000 (Pst DC3000); test: Pst DC3000 inoculation of Arabidopsis leaves with peptide pre-infiltration; assay type: in vivo, Pseudomonas syringae; details: wild type, cfu/cm^2 4 days after infection; AtPep1 10 nM solution
Source text: The resistance to P. irregulare requires the JA signaling pathway in Arabidopsis (Staswick et al, Plant J. 15: 747-754, 1998), and AtPep peptides induced PDF1.2, a marker gene for the JA response (Huffaker et al., Proc. Natl. Acad. Sci. USA 103: 10098-10103, Huffaker and Ryan, Proc. Natl. Acad. Sci. USA 104: 10732-10736, 2007). […] In order to examine this possibility, Arabidopsis plants were inoculated with P. syringae pv. tomato DC3000 (Pst DC3000) with or without AtPep1 pre-infiltration. Pst DC3000 was extracted from the infected leaves 4 days after infection and colony forming units (cfu/cm^2) were calculated. […] The reduction of Pst DC3000 growth was also not observed when the double mutant, pepr1-1/pepr2-1, was pre-infiltrated with AtPep1. […] Pre-infiltration of AtPep2-6 also attenuated Pst DC3000 growth to different degrees.
To assess the importance of AtPEPR1 and AtPEPR2 in the resistance to Pst DC3000 after infiltration of AtPep1, T-DNA insertional mutants were inoculated. When 1 μM AtPep1 was infiltrated into leaves one day prior to Pst DC3000 inoculation, the size of the necrotic regions were reduced in both wild type and single mutant lines, pepr1-1 and pepr2-1. […] Similar results were obtained when another set of mutant lines, pepr1-2, pepr2-2 and pepr1-2/pepr2-2, was used.

OsPEPR1 = test: Medium alkalinization of transgenic tobacco cells expressing OsPEPR1; assay type: cell-based, rice; details: for EC50: read-out: half-maximal activity
Source text: We identified rice homologues of AtPEPR1 in the Rice Annotation Project database (see the website located at www.rapdb.dna.affrc.go.jp). The rice homologues, OsPEPR1 (Os08g0446200) and OsPEPR2 (Os08g0446400), have 60% and 62% amino acid similarities, respectively. The OsPEPR1 has 26 LRRs in the extracellular region, which is the same as AtPEPR1. The OsPEPR2 has a shorter extracellular region with 22 LRRs. Transgenic tobacco cells expressing either OsPEPR1 or OsPEPR2 were created to examine the possibility of receptor binding to monocot peptides. OsPep3a, OsPep3b, OsPep3c, ZmPep1 and ZmPep4a were supplied to suspension cultured transgenic tobacco cells, and medium pH was measured. OsPep3a, OsPep3b, ZmPep1 and ZmPep4a caused medium alkalinization in OsPEPR1 expressing cells with a 1.2 pH unit increase and a half-maximal activity of 0.25 nM.

[4] = AtPEPR1 expressing tobacco cells
[5] = Arabidopsis suspension cultured cells, pH of media after 20 min

OsPEPR1, sequence (as listed by the source): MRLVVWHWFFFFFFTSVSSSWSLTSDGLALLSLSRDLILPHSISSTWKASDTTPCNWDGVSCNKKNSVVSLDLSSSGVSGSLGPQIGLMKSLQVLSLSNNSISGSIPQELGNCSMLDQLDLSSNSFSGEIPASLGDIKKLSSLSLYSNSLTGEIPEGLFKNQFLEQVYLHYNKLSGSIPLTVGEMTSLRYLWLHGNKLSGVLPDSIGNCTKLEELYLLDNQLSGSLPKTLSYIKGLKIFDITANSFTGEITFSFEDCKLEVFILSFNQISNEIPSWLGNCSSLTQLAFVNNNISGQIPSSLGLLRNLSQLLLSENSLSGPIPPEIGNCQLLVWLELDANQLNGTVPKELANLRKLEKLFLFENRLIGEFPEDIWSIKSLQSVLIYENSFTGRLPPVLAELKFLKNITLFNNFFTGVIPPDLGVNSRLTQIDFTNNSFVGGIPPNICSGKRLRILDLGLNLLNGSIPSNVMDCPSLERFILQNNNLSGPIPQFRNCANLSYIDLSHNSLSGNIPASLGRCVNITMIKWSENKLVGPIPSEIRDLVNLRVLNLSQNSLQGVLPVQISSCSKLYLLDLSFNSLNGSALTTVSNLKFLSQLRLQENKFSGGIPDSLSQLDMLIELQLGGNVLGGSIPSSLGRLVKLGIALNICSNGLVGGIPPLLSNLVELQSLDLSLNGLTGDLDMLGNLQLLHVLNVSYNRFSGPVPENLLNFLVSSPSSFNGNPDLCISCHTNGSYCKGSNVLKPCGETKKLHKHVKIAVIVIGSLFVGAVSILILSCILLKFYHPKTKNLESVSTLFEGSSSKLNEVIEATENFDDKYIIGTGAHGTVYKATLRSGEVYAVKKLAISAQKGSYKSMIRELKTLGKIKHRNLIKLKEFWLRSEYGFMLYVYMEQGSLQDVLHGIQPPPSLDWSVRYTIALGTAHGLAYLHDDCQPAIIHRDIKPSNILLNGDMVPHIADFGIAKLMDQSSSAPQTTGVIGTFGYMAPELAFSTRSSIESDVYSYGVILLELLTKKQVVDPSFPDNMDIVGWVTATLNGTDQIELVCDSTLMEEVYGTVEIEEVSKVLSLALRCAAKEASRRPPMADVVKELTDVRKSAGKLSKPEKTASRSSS

Compound: VSGNVAARKGKQQTSSGKGGGTN (VSGNVAARKGKQQTSSGKGGGTN) [AtPep7]
- change in pH (AtPEPR1; [4]): did not increase medium pH
- alkalinization of the medium (AtPEPR1; [4]): weaker activity

Compound: RGKEKVSSGRPGQHN [Peptide 15-mer]
- activity at the lowest concentration tested ([1]; 0.25 nM): substantial activity
- activity in the alkalinization assay [1, 5]: nearly as active as the native peptide

Compound: SSGRPGQHN
- activity in the alkalinization assay [1, 5]: inactive

Compound: azido-Cys-AtPep1: Cys-AtPep1 coupled through a disulfide bond to the photoaffinity cross-linker APDP (C(APDP″)ATKVKAKQRGKEKVSSGRPGQHN)
- activity in the alkalinization assay [1, 5]: as fully active as the native peptide

Compound: CC(C)[C@H](NC(=O)[C@H](CCCCN)NC(=O)[C@@H](NC(=O)[C@H](C)NC(=O)[C@@H](N)Cc1ccc(O)c(I)c1)[C@@H](C)O)C(=O)N[C@@H](CCCCN)C(=O)N[C@@H](C)C(=O)N[C@@H](CCCCN)C(=O)N[C@@H](CCC(N)=O)C(=O)N[C@@H](CCCNC(=N)N)C(=O)NCC(=O)N[C@@H](CCCCN)C(=O)N[C@@H](CCC(=O)O)C(=O)N[C@@H](CCCCN)C(=O)N[C@H](C(=O)N[C@@H](CO)C(=O)N[C@@H](CO)C(=O)NCC(=O)N[C@@H](CCCNC(=N)N)C(=O)N1CCC[C@H]1C(=O)NCC(=O)N[C@@H](CCC(N)=O)C(=O)N[C@@H](Cc1c[nH]cn1)C(=O)N[C@@H](CC(N)=O)C(=O)O)C(C)C [mono-iodo-Tyr-AtPep1] (H-[Tyr(3-I)]ATKVKAKQRGKEKVSSGRPGQHN-OH)
- time to equilibration of binding [2]: ≤ 4 min
- peptide concentration saturating the sites ([2]; 10^6 cells/assay): about 0.1 nM
- Kd ([2]; Scatchard analysis of the saturation data, Arabidopsis suspension cultured cells): 0.25 nM
- time to maximal binding to Arabidopsis cells ([2]; saturation kinetics): ≤ 10 min
- activity in the alkalinization assay [1, 5]: as fully active as AtPep1

Compound: EIKARGKNKTKPTPSSGKGGKHN (EIKARGKNKTKPTPSSGKGGKHN) [AtPep4]
- change in pH (AtPEPR1; [4]): did not increase medium pH
- alkalinization of the medium (AtPEPR1; [4]): weaker activity

Compound: 15-mer RGKEKVSSGRPGQHN with Gly at position 9 replaced by Ala; inactive derivative of AtPep1 [Gly to Ala substitution at position 9]
- competition with the non-substituted 15-mer for receptor binding [2]: neither of these analogs were able to compete
- activity in the alkalinization assay [1, 5]: little activity
- EC50 ([1]; Arabidopsis suspension cultured cells, pH of media after 20 min, read-out: half-maximal activity in the alkalinization assay): > 250 nM
- Pst DC3000 growth in leaves after pre-infiltration [3]: not observed

Compound: 15-mer RGKEKVSSGRPGQHN with Ser at position 7 replaced by Ala (-ASGR-) [Ser to Ala substitution at position 7]
- competition with the non-substituted 15-mer for receptor binding [2]: neither of these analogs were able to compete
- activity in the alkalinization assay [1, 5]: little activity

Compound: VRRRPTTPGRPREGSGGNGGNHH [ZmPep1, VRRRPTTPGRPREGSGGNGGNHH]
- medium pH increase (OsPEPR1): 1.2 pH unit
- EC50 (OsPEPR1): 0.25 nM

Compound: ITAVLRRRPRPPPYSSGRPGQNN [AtPep6, ITAVLRRRPRPPPYSSGRPGQNN]
- EC50 (AtPEPR1): ~0.25 nM
- maximal change (AtPEPR1; [4]): 1.2 pH units

Compound: GLPGKKNVLKKSRESSGKPGGTN [AtPep5, GLPGKKNVLKKSRESSGKPGGTN]
- EC50 (AtPEPR1): ~0.25 nM

Compound: RRPTPPGGAGPREGSGGRGGVIH [OsPep3b, RRPTPPGGAGPREGSGGRGGVIH]
- medium pH increase (OsPEPR1): 1.2 pH unit
- EC50 (OsPEPR1): 0.25 nM
